{"source": "patent US6831088B2", "about": "“3-heterocyclypropanohydroxamic acid PCP inhibitors” (Pfizer Inc., priority 2001, dated 2004)", "origin": "cited, not measured here", "tested_on": "PCP", "note": "Read-outs that look alike come from different tables or passages of the source.", "data": [{"smiles": "[Cl-].[Na+]", "note": "[NaCl]", "values": [{"measurement": "activity of PCP relative to that observed with the standard assay concentration of 0.15M", "setting": "0.2M NaCl", "result": 66, "unit": "%"}, {"measurement": "activity of PCP relative to that observed with the standard assay concentration of 0.15M", "setting": "0.3M NaCl", "result": 38, "unit": "%"}, {"measurement": "activity of PCP relative to that observed with the standard assay concentration of 0.15M", "setting": "0.5M NaCl", "result": 25, "unit": "%"}]}]}
